This is an account of results in US10344071B2, “Identification of novel anti-fibrotic peptide in C-terminal region of the MET receptor tyrosine kinase” (MUSC Foundation for Research Development, priority 2015, dated 2019).

Ends that are not written are not given here.

In data set [1] the test system is normal LF transfected with MET WT or MET D1398G. In words: Collagen, SMA, CTGF in transfected TGFβ-stimulated normal lung fibroblasts, Western blot. The format is cell-based, human. The settings on record: 48 hours. How it is done:
FIG. 3, comprising FIG. 3A through FIG. 3D, depicts expression of type I collagen, SMA, and CCN2 in normal lung fibroblasts (LF) transfected with MET WT and MET D1398G. Transfected […] lung fibroblasts were serum-starved for 24 hours followed by incubation for 48 hours with recombinant TGFβ (5 ng/ml) and/or HGF (50 ng/ml). FIG. 3A depicts that the cells were collected with lysis buffer and analyzed by Western blot with indicated antibodies including MET as a transfection efficiency control and anti-β-actin antibody as a loading control. FIG. 3B through FIG. 3D depict densitometric analysis of immunoblots for collagen, SMA and CCN2 respectively. Values are the mean and SD from three independent experiments.
Cells were collected and analyzed by immunoblotting as previously described (Bogatkevich et al., J Biol Chem. 2001, 276:45184-45192; Bogatkevich et al., Arthritis Rheum. 2007, 56:3468-3477). Phosphorylation of MET was analyzed using anti-phospho-c-Met [pYpYpY^1230/1234/1235], pY^1349, and pY^1356 antibodies (BioSource International, Inc., Camarillo, Calif.). Total MET was immunobloted using anti-MET (C12) (Santa Cruz Biotechnology, Santa Cruz, Calif.) and anti-MET (25H2) (Cell Signaling, Danvers, Mass.). […]

Data set [2] addresses T1, MET WT (Homo sapiens, UniProt P08581).
T1 construct: The wild type (WT) full-length c-MET cDNA in pLXSN; expressed in transfected cells; host or cells: lung fibroblasts (LF) and A549 alveolar epithelial cells, infected with recombinant adenovirus (pAdTrack-CMV/AdEasy)
In words: HGF-induced MET tyrosine phosphorylation in transfected LF and AEC. The format is cell-based. Conditions: HGF 50 ng/ml. The protocol: (§1) FIG. 1, comprising FIG. 1A and FIG. 1B, depicts MET tyrosine phosphorylation in lung fibroblasts (LF) and alveolar epithelial cells (AEC). FIG. 1A depicts a time course of MET WT and MET D1398G tyrosine phosphorylation as determined in LF and AEC incubated with HGF (50 ng/ml) for various time points. Cell extracts were immunoblotted with anti-phospho-MET or anti-MET polyclonal antibodies (see details in Materials and Methods). FIG. 1B depicts quantitative results of densitometric analysis of immunoblots. Values are the mean and SD from three independent experiments.
(§2) Cells were collected and analyzed by immunoblotting as previously described (Bogatkevich et al., J Biol Chem. 2001, 276:45184-45192; Bogatkevich et al., Arthritis Rheum. 2007, 56:3468-3477). Phosphorylation of MET was analyzed using anti-phospho-c-Met [pYpYpY^1230/1234/1235], pY^1349, and pY^1356 antibodies (BioSource International, Inc., Camarillo, Calif.). Total MET was immunobloted using anti-MET (C12) (Santa Cruz Biotechnology, Santa Cruz, Calif.) and anti-MET (25H2) (Cell Signaling, Danvers, Mass.). Anti-type I collagen antibody (Southern Biotechnology, Birmingham, Ala.)), anti-CTGF antibody (Santa Cruz Biotechnology, Santa Cruz, Calif.), and anti-smooth-α-actin antibody (Sigma, St. Louis, Mo.) were also used.
(§3) As an initial approach to evaluate the functional consequences of D1398G mutation, HGF-induced MET autophosphorylation was studied in LF and AEC (A549 cell line) transfected either with MET WT or D1398G mutant. MET tyrosine phosphorylation was assessed using anti-phospho-c-Met[pYpYpY^1230/1234/1235], pY^1349, and pY^1356 antibodies. Treatment with HGF induced rapid phosphorylation of MET WT at tyrosine 1230, 1234, and 1235 in both LF and AEC. Maximal phosphorylation was observed within 5 minutes of HGF treatment and decreased by 20 minutes following HGF treatment (FIG. 1). […] The time course of HGF-induced phosphorylation at tyrosine 1356 in LF resembled tyrosine 1230, 1234, and 1235 phosphorylation with maximal levels observed within 5 minutes of HGF treatment. Tyrosine 1356 phosphorylation in AEC appeared to be stronger than in LF with maximal levels observed within 20 minutes of HGF treatment.

For data set [3], the target named is T2, MET D1398G (Homo sapiens, UniProt P08581, D1380G).
T2 construct: The wild type (WT) full-length c-MET cDNA in pLXSN; expressed in transfected cells; host or cells: lung fibroblasts (LF) and A549 alveolar epithelial cells, infected with recombinant adenovirus (pAdTrack-CMV/AdEasy)
The description is as above. The format is cell-based. The settings on record: HGF 50 ng/ml. The protocol:
as §1, §2, §3

The test system of data set [4] is scleroderma LF transfected with MET WT or MET D1398G. The data set is described as follows: Collagen, SMA, CTGF in transfected scleroderma lung fibroblasts, Western blot. Format: cell-based, human. Conditions: 50 ng/ml for 48 hours. How it is done:
FIG. 2, comprising FIG. 2A and FIG. 2B, depicts Expression of type I collagen, SMA, and CCN2 in scleroderma lung fibroblasts (LF) transfected with MET WT and MET D1398G. FIG. 2A depicts transfected SSc LF were serum-starved for 24 hours followed by incubation for 48 hours with recombinant HGF (50 ng/ml). The cells were collected with lysis buffer and analyzed by Western blot with indicated antibodies including MET as a transfection efficiency control. Anti-β-actin antibody was used as a loading control. FIG. 2B depicts quantitative results of densitometric analysis of immunoblots. Values are the mean and SD from four independent experiments.
as §2, with “used. […]” for “used.”

For data set [5], the system named is Ras. The data set is described as follows: Ras Activity Assay (G-LISA, Ras-GTP). Format: cell-based, human. Conditions: 50 ng/ml; LF and AEC transfected with MET WT. The protocol:
(§4) FIG. 4, comprising FIG. 4A through FIG. 4D, depicts the effect of HGF on Ras activation and Erk1/2 phosphorylation in lung fibroblasts (LF) and alveolar epithelial cells (AEC). FIG. 4A depicts HGF-induced Erk1/2 phosphorylation in LF and AEC transfected with MET WT and MET D1398G was determined in cells treated with HGF (50 ng/ml) for 10 min. Cell extracts were immunoblotted with anti-phospho-Erk1/2 or anti-Erk1/2, anti-MET, and anti-β-actin antibodies. FIG. 4B depicts densitometric analysis of phospho-Erk1/2 immunoblots from three independent experiments. FIG. 4C and FIG. 4D depict Ras activity in LF and AEC respectively, transfected with MET WT and MET D1398G treated with and without HGF (50 ng/ml) for 10 min.
G-LISA Kit (Cytoskeleton Inc., Denver, Colo.) was used to measure endogenous Ras-GTP levels. […] Bound Ras-GTP levels were determined by anti-Ras primary antibody followed by horseradish peroxidase-conjugated secondary antibody. A peroxidase substrate was applied, and the plates were read at 450 nm on a spectrophotometer.
HGF-induced phosphorylation of Erk1/2 is mediated by Ras (Campbell, et al., Oncogene, 1998, 17:1395-413). To investigate whether D1398G mutation affects MET-dependent Ras activation, Ras-GTP in LF and in AEC transfected with MET WT and with MET D1398G was measured.

The test system of data set [6] is Erk1/2 phosphorylation. In words: HGF-induced Erk1/2 phosphorylation in transfected LF and AEC. Format: cell-based, human. The settings on record: 50 ng/ml for 10 min. The protocol:
as §4
The phosphorylation of p42/p44 MAPK isoforms was analyzed using anti-phospho-Erk1/2 and Erk1/2 antibodies in accordance with the manufacturer's instructions (Cell Signaling Technology, Danvers, Mass.). Immunoblots were routinely stripped and reblotted with anti-β-actin antibody (Sigma, St. Louis, Mo.) as a loading control.
To investigate whether the D1398G mutation affects MAPK signaling pathways, the Erk1/2 phosphorylation was examined. Basal and HGF-induced Erk1/2 phosphorylation were more prominent in AEC as compared with LF. […] The basal level of nonphosphorylated Erk1/2 in LF and AEC was not affected either by HGF stimulation or by transfection with D1398G mutation.

Data set [7] deals with cell viability.
In data set [8] the test system is bleomycin-induced pulmonary fibrosis. Conditions: mouse, in vivo.
Source text: FIG. 14A depicts representative histologic findings of lung inflammation and fibrosis. […] FIG. 14B depicts a quantitative evaluation of fibrotic changes (Ashcroft scores), n=32 (8 mice per group).
Mice (n=6), C57BL/6 male were used in this study. Mice were maintained in animal quarters specially designated for pathogen-free mice and were provided with food and water ad libitum. Lung injury was induced by intratracheal instillation of bleomycin (2 U/kg in saline) under isoflurane anesthesia. Control mice received same volume of saline. […] Control mice received 10 mg/kg scrambled peptide. Animals were sacrificed in 3 weeks, and lungs were harvested and processed for tissue staining.
Sacrificed mice were subjected to midline thoracotomy. […]
To evaluate the stages of lung fibrosis, multiple sections from each lung were stained with Hematoxylin and eosin (H & E staining) or with trichrome staining for collagen and other extracellular matrix proteins. Fibrosis quantification was performed by using 0 (normal) to 8 (total fibrosis) Ashcroft scale (Ashcroft, et al., J Clin Pathol, 1988, 41:467-470). Morphological changes such as the thickness of alveolar septa, accumulation of vascular component and connective tissue, infiltration of inflammatory cells were analyzed. For histological evaluation each specimens were divided in 10 non-overlapping fields and scored independently. […]
For data set [9], the system named is TGFβ-stimulated lung fibroblasts. In words: Collagen in TGFβ-stimulated lung fibroblasts, immunoblot. The format is cell-based. Conditions: 1 μg/ml for 24 h; TGFβ 5 ng/ml. The protocol:
FIG. 18 depicts M5 peptide inhibits collagen in TGFβ-stimulated lung fibroblasts. Cells were incubated with and without TGFβ (5 ng/ml) and M5 peptide (1 μg/ml) for 24 h and analyzed by immunoblotting using anti-collagen type I antibody. Beta-actin was used as a loading control.
A peptide containing just the M5 sequence (TRPAS (SEQ ID NO: 4)) was generated and was tested for its effect on collagen.
A general note: A western blot detects proteins with antibodies after separation by electrophoresis.

Take “HGF: recombinant hepatocyte growth factor, ligand of the MET receptor”: the “levels of collagen, SMA and CTGF” value in [1] was “decreased the levels of collagen, SMA and CTGF”. Further, the “time of maximal phosphorylation at tyrosine 1356” value in [2] (AEC) was at most 20 min; in [2] (LF) it was at most 5 min; in data set [3] (MET D1398G), 1 h. Also, the “time of maximal phosphorylation at tyrosine 1230, 1234, and 1235” value in data set [2] (LF and AEC) is at most 5 min. Also, in [3] (LF and AEC), the “tyrosine phosphorylation of MET D1398G in contrast to MET WT” value was “decreased and delayed”. Besides, the “expression of collagen, SMA, and CTGF” value in data set [4] (scleroderma LF transfected with MET D1398G) was “not in LF transfected with mutant MET D1398G”; in data set [4] (scleroderma LF transfected with MET WT), “reduced expression of collagen, SMA, and CTGF”. Besides, the “total Ras activity” value in data set [5] is reported as “significant increase in total Ras activity”. The “HGF-induced Erk1/2 phosphorylation, MET WT compared with MET D1398G cells” value in data set [6] was “notably higher”. Also, the Erk1/2 phosphorylation result in data set [6] (LF and AEC transfected with MET WT or MET D1398G) is given as “further induced Erk1/2 phosphorylation”.
TRPASFWETS [M10]: in data set [7], the “cell viability measured by the ATP-dependent assay” value was “does not affect cell viability”. For the same substance, in [8], the “lung histology in control mice that received saline and peptide” value is “normal septa, vascular components, and connective tissue”.
“TRPAS (M5 Peptide) [C-terminal fragment of the MET receptor]”: in [9], the “level of collagen versus fibroblasts stimulated with TGFβ” value is “reduced level of collagen”.
